Reference: PMC10257182, “Discovery of senolytics using machine learning” (Nature Communications, 2023)
Several values for one entry are separate records, joined by “and”; a condition that tells them apart may be missing. Equal entries are not always repeated.

Tests used:
Assay type in all cases: cell-based, human
[1] = system: proliferating IMR90 cells; assay: BrdU incorporation proliferation assay; settings: IMR90 cells; single replicates (SUP FIG 9G)
Description: 5-bromo-2′-deoxyuridine (BrdU) incorporation was used to measure the number of cells actively replicating DNA. Cells were incubated with 10 μM BrdU (85811, Sigma) for 18 h. After that, cells were fixed with 4% Paraformaldehyde, permeabilised, blocked and then stained for immunofluorescence using BrdU primary antibody (555627 BD Pharmigen), Alexa fluor secondary for detection, and DAPI staining for cell counting. Acquisition was done with a Nikon TI2 microscope and analysis was performed with ImageJ for cell counting.

[2] = system: p16 and p21 mRNA in IMR90 ER:RAS cells; assay: p16 and p21 mRNA expression by RT-qPCR, OIS; settings: ER:RAS cells; ER:RAS DMSO = 1; n 4
Description: (§1) Total RNA was isolated using RNAeasy kit (Quiagen). cDNA was generated with reverse transcriptase iScript (Bio-Rad). RT-qPCR was performed using SYBR Select Master Mix (Applied Biosystems) in OneStepPlus detection system (Applied Biosystems). Oligos for amplification were: NOXA Fw-[…] and Rv-[…]; b-ACTIN Fw-[…] and Rv-[…]; IL1a Fw-[…] and Rv- […]; IL1b Fw-[…] and Rv- […]; IL8 Fw-[…] and Rv-[…]; p16 Fw-CGGTCGGAGGCCGATCCAG and Rv- […]; p21Fw-[…] and Rv- […].

[3] = system: IL1α, IL1β and IL8 mRNA in IMR90 cells at passage 27; assay: IL1α, IL1β and IL8 mRNA expression by RT-qPCR, replicative senescence; settings: Replicative senescence, OLE group mean, DMSO = 1
Description: as §1

[4] = system: p16 and p21 mRNA in IMR90 cells at passage 27; assay: p16 and p21 mRNA expression by RT-qPCR, replicative senescence; settings: Replicative senescence; Replicative senescence DMSO = 1; n 3
Description: as §1

[5] = system: IL1α, IL1β and IL8 mRNA in IMR90 ER:RAS cells; assay: IL1α, IL1β and IL8 mRNA expression by RT-qPCR, OIS; settings: ER:RAS cells, RAS OLE group mean, RAS C (DMSO) = 1
Description: as §1

[6] = system: senescent A549 cells (etoposide-induced); assay: Nuclei count senolytic assay, therapy-induced senescence (TIS) model, senescent cells; settings: for % Cell Survival: senescence cells, single replicate
Description: (§2) We performed a second validation of the effectiveness of our machine learning models using a different stressor. We focused on therapy-induced senescence (TIS, Supplementary Fig. 6a), where human epithelial cancerous cells (A549) were induced to become senescent by addition of etoposide. Cells were treated with 100 μM etoposide for 48 h, followed by another three days of exposure to media in standard conditions.
(§3) We performed experimental validation of the compounds with z-score > 8 (Fig. 2e). […] We employed two cellular models of senescence: one of OIS and a second one of TIS. For the OIS case, we utilised IMR90 ER:RAS cells with 4-OHT at 100 nM. […] For the TIS model, we used A549 cells with etoposide at 100 μM. The exposure of the cells to etoposide lasted 48 h, after which period the cells were cultivated for a further three days with normal media.
(§4) IMR90 (CCL-186) human foetal lung fibroblasts and A549 (CCL-185) human lung adenocarcinoma cells were obtained from the American Type Culture Collection (ATCC, Manassas, VA). The cell lines were confirmed to be mycoplasma negative (Lonza MycoAlert, cat #LT07-118). IMR90 ER:RAS is a derivative of IMR90 cells expressing a switchable version of oncogenic H-Ras[84]. IMR90 ER:RAS and A549 cells were maintained in Dulbecco’s Modified Eagle Medium (DMEM, ThermoFisher) supplemented with foetal bovine serum (10%), L-glutamine (2 mM, ThermoFisher), and antibiotic-antimycotic solution (1%, ThermoFisher) and incubated under standard tissue culture conditions (37 °C and 5% CO2). For induction of the senescent phenotype, IMR90-ER:RAS cells were cultured in hydroxytamoxifen (4-OHT) (Sigma) added media at 100 nM final concentration. IMR90 were kept in culture for over 27 passages for replicative senescence. Cells were tested for mycoplasma on a regular basis.
(§5) Cells were seeded (50 μL per well) into 384-well plates (IMR90 ER:RAS cells in Nunc Optical Bottom Polybase Microplates [#142761, Thermo Scientific, Rochester, NY] and A549 cells in CELLSTAR Cell Culture Microplates [#781091, Greiner Bio-One, Kremsmünster, Austria]). Cells were incubated under standard tissue culture conditions for 24 h before the addition of compounds. Passage 14 IMR90 ER:RAS cells were seeded at 1300 cells per well in the control condition, and at 1600 cells per well in the senescent case. Passage 34 A549 cells were seeded at 7000 cells per well in the control condition, and at 10,000 cells per well in the senescent case.
(§6) Dose response plates were prepared with a DMSO control and a 10-point […] concentration range, and added to the compounds using a D300e digital dispenser (Tecan Trading AG, Switzerland) at a final concentration of between 10 μM and 10 nM. Every screened condition was carried out in triplicate. After 72 h of incubation with exposure to the compounds, cells were fixed by the addition of an equal volume of formaldehyde (8%, 50 μL; #BP531-500, Fisher Bioreagents, Fisher Scientific, Loughborough, Leicestershire) to the existing media, incubated at room temperature (30 min), and washed three times in phosphate-buffered saline (PBS). Cells were then permeabilised in Triton-X100 (0.1%, 50 μL) and incubated at room temperature (30 min) followed by three more washes with PBS.
(§7) Cells were stained with Hoechst 33342 for nuclei count (excitation/emission wavelength at 387/447 […], DAPI channel, original concentration at 10 mg/ml, final concentration at 2 μg/ml; H1399, Molecular Probes, Eugene, OR). The staining solution was prepared in bovine serum albumin solution (10%). The staining solution was added to each well (30 μL) and incubated in the dark at room temperature (30 min), followed by three washes with PBS and no final aspiration. Plates were foil sealed.
(§8) Plates were imaged on an ImageXpress micro XLS (Molecular Devices, Eugene, OR) equipped with a robotic plate loader (Scara4, PAA, UK).

[7] = system: non-senescent control A549 cells; assay: Nuclei count senolytic assay, TIS model, non-senescent control cells; settings: for % Cell Survival: control cells, single replicate
Description: as §2, §3, §4, §5, §6, §7, §8

COc1cc([C@@H]2c3cc4c(cc3[C@@H](O[C@@H]3O[C@@H]5CO[C@@H](C)O[C@H]5[C@H](O)[C@H]3O)[C@H]3COC(=O)[C@H]23)OCO4)cc(OC)c1O [Etoposide]
% BrdU positive cells [1]: 3.24% and 11.47% and 6.41% and 6.29%

COC1CC(OC2CCC3(C)C(CCC4C3CCC3(C)C(C5=CC(=O)OC5)C(OC(C)=O)CC43O)C2)OC(C)C1O (stereo not drawn) [OLE]
p16 mRNA expression, mean (Test details, Mean 2) [2]: 0.5169 | p21 mRNA expression, mean (Test details, Mean 2) [2]: 0.5115 | Il1a mRNA expression, mean (Mean 2) ([3]; n=3): 0.411 | Il8 mRNA expression, mean (Mean 2) ([3]; n=3): 0.5871 | Il1b mRNA expression, mean (Mean 2) ([3]; n=4): 0.4327 | p16 mRNA expression, mean (Test details, Mean 2) [4]: 0.5298 | p21 mRNA expression, mean (Test details, Mean 2) [4]: 0.4442 | Il1a mRNA expression, mean (Mean 2) ([5]; n=4): 0.4376 | Il8 mRNA expression, mean (Mean 2) ([5]; n=5): 0.3662 | Il1b mRNA expression, mean (Mean 2) ([5]; n=6): 0.7128

CC1(C)CCC(c2ccc(Cl)cc2)=C(CN2CCN(c3ccc(C(=O)NS(=O)(=O)c4ccc(N[C@H](CCN5CCOCC5)CSc5ccccc5)c(S(=O)(=O)C(F)(F)F)c4)cc3)CC2)C1 [navitoclax, reference compound]
viability at 10 µM ([6]; Homo sapiens, A549, log (dose) [M] -5, Senescent cells, mean, read-out: Mean % Cell Survival): 6.32% | viability at 4.68 µM ([6]; Homo sapiens, A549, log (dose) [M] -5.33, Senescent cells, mean, read-out: Mean % Cell Survival): 13.6% | viability at 2.19 µM ([6]; Homo sapiens, A549, log (dose) [M] -5.66, Senescent cells, mean, read-out: Mean % Cell Survival): 17.1% | viability at 1 µM ([6]; Homo sapiens, A549, log (dose) [M] -6, Senescent cells, mean, read-out: Mean % Cell Survival): 27.7% | viability at 0.468 µM ([6]; Homo sapiens, A549, log (dose) [M] -6.33, Senescent cells, mean, read-out: Mean % Cell Survival): 43.7% | viability at 0.219 µM ([6]; Homo sapiens, A549, log (dose) [M] -6.66, Senescent cells, mean, read-out: Mean % Cell Survival): 65.4% | viability at 0.1 µM ([6]; Homo sapiens, A549, log (dose) [M] -7, Senescent cells, mean, read-out: Mean % Cell Survival): 94% | viability at 0.0468 µM ([6]; Homo sapiens, A549, log (dose) [M] -7.33, Senescent cells, mean, read-out: Mean % Cell Survival): 91.8% | viability at 0.0219 µM ([6]; Homo sapiens, A549, log (dose) [M] -7.66, Senescent cells, mean, read-out: Mean % Cell Survival): 109% | viability at 0.01 µM ([6]; Homo sapiens, A549, log (dose) [M] -8, Senescent cells, mean, read-out: Mean % Cell Survival): 103% | IC50 ([6]; Homo sapiens, TIS model, etoposide-induced senescent A549, nuclei count, 72 h): 0.44 µM | concentration at which a senolytic effect was reached ([6]; TIS A549, Hoechst labelling, marginal or no effect on normal cells): 1 µM | % Cell Survival ([6]; log (dose) [M] -5): 4.269% and 4.259% and 10.4231% | % Cell Survival ([6]; log (dose) [M] -5.33): 11.4818% and 14.3371% and 14.9601% | % Cell Survival ([6]; log (dose) [M] -5.66): 15.9961% and 17.9964% and 17.29% | % Cell Survival ([6]; log (dose) [M] -6): 23.7488% and 24.4151% and 34.8866% | % Cell Survival ([6]; log (dose) [M] -6.33): 46.0255% and 39.6521% and 45.3096% | % Cell Survival ([6]; log (dose) [M] -6.66): 63.9352% and 60.5879% and 71.5512% | % Cell Survival ([6]; log (dose) [M] -7): 88.2728% and 86.8026% and 106.99% | % Cell Survival ([6]; log (dose) [M] -7.33): 62.8557% and 104.139% and 108.461% | % Cell Survival ([6]; log (dose) [M] -7.66): 92.002% and 113.377% and 120.969% | % Cell Survival ([6]; log (dose) [M] -8): 100.736% and 105.159% and 103.556% | viability at 10 µM ([7]; Homo sapiens, A549, log (dose) [M] -5, Control cells, mean, read-out: Mean % Cell Survival): 61.6% | viability at 4.68 µM ([7]; Homo sapiens, A549, log (dose) [M] -5.33, Control cells, mean, read-out: Mean % Cell Survival): 105% | viability at 2.19 µM ([7]; Homo sapiens, A549, log (dose) [M] -5.66, Control cells, mean, read-out: Mean % Cell Survival): 107% | viability at 1 µM ([7]; Homo sapiens, A549, log (dose) [M] -6, Control cells, mean, read-out: Mean % Cell Survival): 129% | viability at 0.468 µM ([7]; Homo sapiens, A549, log (dose) [M] -6.33, Control cells, mean, read-out: Mean % Cell Survival): 116% | viability at 0.219 µM ([7]; Homo sapiens, A549, log (dose) [M] -6.66, Control cells, mean, read-out: Mean % Cell Survival): 109% | viability at 0.1 µM ([7]; Homo sapiens, A549, log (dose) [M] -7, Control cells, mean, read-out: Mean % Cell Survival): 97.7% | viability at 0.0468 µM ([7]; Homo sapiens, A549, log (dose) [M] -7.33, Control cells, mean, read-out: Mean % Cell Survival): 98.7% | viability at 0.0219 µM ([7]; Homo sapiens, A549, log (dose) [M] -7.66, Control cells, mean, read-out: Mean % Cell Survival): 96.8% | viability at 0.01 µM ([7]; Homo sapiens, A549, log (dose) [M] -8, Control cells, mean, read-out: Mean % Cell Survival): 98.9% | IC50 ([7]; Homo sapiens, TIS model, non-senescent A549, nuclei count, 72 h): 10.2 µM | % Cell Survival ([7]; log (dose) [M] -5): 52.0394% and 75.3687% and 57.3758% | % Cell Survival ([7]; log (dose) [M] -5.33): 116.878% and 75.1475% and 123.277% | % Cell Survival ([7]; log (dose) [M] -5.66): 112.518% and 117.404% and 91.8458% | % Cell Survival ([7]; log (dose) [M] -6): 119.058% and 135.177% and 132.987% | % Cell Survival ([7]; log (dose) [M] -6.33): 128.692% and 108.112% and 112.083% | % Cell Survival ([7]; log (dose) [M] -6.66): 114.276% and 101.991% and 109.489% | % Cell Survival ([7]; log (dose) [M] -7): 92.6864% and 99.5575% and 100.964% | % Cell Survival ([7]; log (dose) [M] -7.33): 97.6793% and 98.2301% and 100.074% | % Cell Survival ([7]; log (dose) [M] -7.66): 95.0774% and 99.4838% and 95.7746% | % Cell Survival ([7]; log (dose) [M] -8): 98.1716% and 98.2301% and 100.445%
